According to patent publication US20130040882A1, “USE OF FIBROBLAST GROWTH FACTOR FRAGMENTS” (NOVARTIS AG, priority 2003, published 2013):
Read-outs that look alike come from different tables or passages of the source.

Tested on: transcript levels in tissues (GH/IGF and glucagon/insulin axes, SSTR signalling)
Assay type: in vivo, cynomolgus monkeys

Substance: cyclo[4-(NH2—C2H4—NH—CO—O)Pro-Phg-DTrp-Lys-Tyr(4-Bzl)-Phe] [SOM230]
- Calcium/calmodulin-dependent protein kinase (CaM kinase) II β expression ↑ (fold change) (spleen): II β ↑ x2
- Calmodulin 1 (phosphorylase kinase, δ) expression ↑ (fold change) (spleen): kinase, δ) ↑ x2
- Calmodulin 2 (phosphorylase kinase, δ) expression ↑ (fold change) (spleen): kinase, δ) ↑ x1.5
- Caspase 8, apoptosis-related cysteine protease expression ↑ (fold change) (spleen): ↑ x2.5
- Cdk 2 expression ↑ (fold change) (spleen): Cdk 2 ↑ x1.5
- Cdk 5, regulatory subunit 1 (p35) expression ↑ (fold change) (spleen): 1 (p35) ↑ x2
- Cdk 6 expression ↑ (fold change) (spleen): Cdk 6 ↑ x3
- Cyclin D2 expression ↑ (fold change) (spleen): x1.5
- Cyclin I expression ↓ (fold change) (spleen): Cyclin I ↓ x1.5
- Death-associated protein expression ↑ (fold change) (spleen): protein ↑ x1.5
- Dopamine receptor D4 expression ↓ (fold change) (spleen): receptor D4 ↓ x2
- EGF (β-urogastrone) expression ↓ (fold change) (spleen): urogastrone) ↓ x2
- Follistatin-like 1 expression ↑ (fold change) (spleen): ↑ x1.5
- Gastric inhibitory polypeptide receptor expression ↑ (fold change) (spleen): ↑ x2
- Gene expression (AvgDiff): IGF-1 (spleen): 85
- Gene expression (AvgDiff): IGFBP6 (spleen): 1,043
- Gene expression (AvgDiff): SSTR2 (spleen): 93
- HGF activator inhibitor precursor expression ↑ (fold change) (spleen): x1.5
- IFN regulatory factor 2 expression ↑ (fold change) (spleen): factor 2 ↑ x3.5
- IFN-inducible RNA-dependent protein kinase expression ↑ (fold change) (spleen): ↑ x2.5
- IFNγ receptor 2 (IFNγ transducer 1) expression ↑ (fold change) (spleen): x1.5
- IFNγ responsive transcript expression ↑ (fold change) (spleen): ↑ x2
- IGF-1 expression ↑ (fold change) (spleen): IGF-1 ↑ x1.5
- IGFBP6 expression ↑ (fold change) (spleen): IGFBP6 ↑ x2.5
- IL 1 receptor-like 1 expression ↑ (fold change) (spleen): 1 ↑ x2
- IL-8 receptor type B expression ↑ (fold change) (spleen): B ↑ x1.5
- IP-4-phosphatase, type 1, isoform b expression ↑ (fold change) (spleen): ↑ x2
- K+ large conductance Ca++-activated channel, subfamily M, β member 1 expression ↑ (fold change) (spleen): ↑ x2.5
- K+ voltage-gated channel, shaker-related subfamily, member 3 expression ↓ (fold change) (spleen): member 3 ↓ x3
- LTb4 (chemokine rceptor-like 1) expression ↑ (fold change) (spleen): rceptor-like 1) ↑ x3
- Nuclear factor of activated T-cells, cytoplasmic, calcineurin-dependent 1 expression ↓ (fold change) (spleen): dependent 1 ↓ x5
- PDGF, α polypeptide expression ↑ (fold change) (spleen): polypeptide ↑ x2.5
- PDGFR, α polypeptide expression ↑ (fold change) (spleen): polypeptide ↑ x1.5
- PI-3-kinase, catalytic, α polypeptide expression ↓ (fold change) (spleen): polypeptide ↓ x2.5
- PI-3-kinase, class 2, β polypeptide expression ↑ (fold change) (spleen): ↑ x1.5
- PI-3-kinase, class 3 expression ↑ (fold change) (spleen): 3 ↑ x2
- PKC, α binding protein expression ↑ (fold change) (spleen): protein ↑ x2
- PLA2 expression ↑ (fold change) (spleen): PLA2 ↑ x2
- PTHR 1 expression ↓ (fold change) (spleen): PTHR 1 ↓ x2.5
- Phosphatidyl inositol glycan, class B expression ↑ (fold change) (spleen): B ↑ x1.5
- Programmed cell death 10 expression ↑ (fold change) (spleen): death 10 ↑ x1.5
- Putative chemokine receptor; GTP-binding protein expression ↑ (fold change) (spleen): ↑ x2.5
- Rb binding protein expression ↑ (fold change) (spleen): ↑ x2
- Rb-binding protein 8 expression ↑ (fold change) (spleen): 8 ↑ x1.5
- S-phase kinase-associated protein 1A (p19A) expression ↑ (fold change) (spleen): 1A (p19A) ↑ x2
- SSTR2 expression ↑ (fold change) (spleen): SSTR2 ↑ x2
- Solute carrier family 9 (Na+/H+ exchanger) isoform 3 regulatory factor 1 expression ↑ (fold change) (spleen): ↑ x10.5
- TGF induced protein expression ↑ (fold change) (spleen): protein ↑ x1.5
- TGFβ receptor III (betaglycan, 300 kD) expression ↓ (fold change) (spleen): ↓ x1.5
- TNF (cachectin) expression ↑ (fold change) (spleen): ↑ x2
- TNF (ligand) superfamily, member 13 expression ↑ (fold change) (spleen): member 13 ↑ x2.5
- TNFR superfamily, member 12 expression ↑ (fold change) (spleen): member 12 ↑ x1.5
- Tumour protein p53-binding protein expression ↑ (fold change) (spleen): ↑ x1.5
- VEGF expression ↑ (fold change) (spleen): VEGF ↑ x1.5
- Vasodilatator-stimulated phosphoprotein expression ↑ (fold change) (spleen): phosphoprotein ↑ x2
- β adrenergic receptor kinase 1 expression ↑ (fold change) (spleen): kinase 1 ↑ x3
- S-phase kinase-associated protein 1A expression ↑ (fold change) (spleen, second entry, without (p19A)): 1A ↑ x2
- ATPase, Ca++ transporting, cardiac muscle, fast twitch 1 expression ↓ (fold change) (thyroid): ↓ x4.5
- Adenylate cyclase activating polypeptide precursor expression ↓ (fold change) (thyroid): x1.5
- Adrenergic, α-2C-, receptor expression ↓ (fold change) (thyroid): ↓ x2.5
- Bcl-2 binding component 3 expression ↓ (fold change) (thyroid): ↓ x2
- Brain cannabinoid receptor 1 expression ↓ (fold change) (thyroid): ↓ x2
- CD2 antigen (cytoplasmic tail)-binding protein 2 expression ↑ (fold change) (thyroid): ↑ x3.5
- CD2 antigen (p50), sheep red blood cell receptor expression ↓ (fold change) (thyroid): ↓ x7.5
- COL1A1 and PDGFB fusion transcript expression ↓ (fold change) (thyroid): transcript ↓ x6
- Cadherin 13, H-cadherin (heart) expression ↑ (fold change) (thyroid): ↑ x2
- Calcium/calmodulin dependent protein kinase 1 expression ↓ (fold change) (thyroid): ↓ x2
- Calcium/calmodulin-dependent PK IV expression ↓ (fold change) (thyroid): IV ↓ x7.5
- Calmodulin-dependent PK IV (CaM-kinase IV) expression ↓ (fold change) (thyroid): IV) ↓ x7.5
- Cannabinoid receptor 2 (macrophage) expression ↑ (fold change) (thyroid): ↑ x3
- Cdc-like 5 (cholinesterase-related cell division controller) expression ↓ (fold change) (thyroid): x2
- Cdk 5, regulatory subunit 1 (p35) expression ↓ (fold change) (thyroid): subunit 1 (p35) ↓ x5
- Cdk (CDC2-like) expression ↓ (fold change) (thyroid): Cdk (CDC2-like) ↓ x9
- Chemokine (C-X-C motif), receptor 4 (fusin) expression ↓ (fold change) (thyroid): ↓ x3
- Chole-cystokinin B receptor expression ↓ (fold change) (thyroid): receptor ↓ x3
- Cyclin B2 expression ↓ (fold change) (thyroid): Cyclin B2 ↓ x2.5
- DAG 1 kinase, α (80 kD) expression ↓ (fold change) (thyroid): (80 kD) ↓ x4
- Egf-like module containing, mucin-like, hormone receptor-like sequence 1 expression ↓ (fold change) (thyroid): sequence 1 ↓ x5
- FKBP-associated protein expression ↓ (fold change) (thyroid): protein ↓ x2.5
- Flt3 ligand expression ↓ (fold change) (thyroid): Flt3 ligand ↓ x4.5
- Fms-related tyrosine kinase 1(VEGF/vascular permeability factor receptor) expression ↓ (fold change) (thyroid): ↓ x2
- GABA (A) receptor, γ2 precursor expression ↓ (fold change) (thyroid): ↓ x1.5
- GABA (B) receptor 1, isoform a precursor expression ↑ (fold change) (thyroid): ↑ x2.5
- Gastric inhibitory polypeptide 1 receptor expression ↓ (fold change) (thyroid): receptor ↓ x2
- Gene expression (AvgDiff): IGF-1 (thyroid): 58
- Glutamate receptor, metabotropic 2 precursor expression ↓ (fold change) (thyroid): precursor ↓ 3.5
- Growth arrest-specific 1 expression ↓ (fold change) (thyroid): 1 ↓ x2.5
- IFNα-inducible protein 27 expression ↑ (fold change) (thyroid): 27 ↑ x3
- IFNγ responsive transcript expression ↓ (fold change) (thyroid): ↓ x1.5
- IFNγ-inducible protein 30 expression ↑ (fold change) (thyroid): protein 30 ↑ x3.5
- IGF-1 expression ↓ (fold change) (thyroid): IGF-1 ↓ x1.5
- IL2-inducible T-cell kinase expression ↓ (fold change) (thyroid): ↓ x12
- IL9 receptor expression ↓ (fold change) (thyroid): IL9 receptor ↓ x2
- IP3 receptor type 3 expression ↓ (fold change) (thyroid): type 3 ↓ x1.5
- K+ voltage-gated channel, shaker-related subfamily, member 3 expression ↓ (fold change) (thyroid): ↓ x4.5
- LTB4 receptor (chemokine receptor-like 1) expression ↓ (fold change) (thyroid): ↓ x1.5
- Lymphocyte specific protein tyrosine kinase expression ↓ (fold change) (thyroid): ↓ x4
- P56lck expression ↓ (fold change) (thyroid): P56lck ↓ x18
- PDGF-associated Protein expression ↑ (fold change) (thyroid): Protein ↑ x2
- PDGFR α expression ↓ (fold change) (thyroid): ↓ x3
- PDGFR β expression ↑ (fold change) (thyroid): ↑ x2
- PIP 5-phosphatase type IV expression ↓ (fold change) (thyroid): type IV ↓ x3
- PLC, γ1 (formerly subtype 148) expression ↓ (fold change) (thyroid): ↓ x2
- Phosphatidyl ethanolamine N-methyltransferase expression ↑ (fold change) (thyroid): ↑ x2
- Pro-platelet basic protein (includes platelet basic protein, β-thromboglobulin, connective tissue-activating peptide III, neu) 2 expression ↑ (fold change) (thyroid): 2 ↑ x3.5
- RAG1 expression ↓ (fold change) (thyroid): RAG1 ↓ x18
- RAG2 expression ↓ (fold change) (thyroid): RAG2 ↓ x5
- RANTES expression ↑ (fold change) (thyroid): RANTES ↑ x10.5
- SH2 domain protein 1A, Duncan's disease (lymphoproliferative syndrome) expression ↓ (fold change) (thyroid): ↓ x7.5
- Signalling lymphocytic activation molecule expression ↓ (fold change) (thyroid): ↓ x4.5
- Solute carrier family 21 (PG transporter), member 2 expression ↑ (fold change) (thyroid): member 2 ↑ x2
- TCR ζ chain precursor expression ↓ (fold change) (thyroid): ↓ x5.5
- TNF (ligand) superfamily, member 10 expression ↑ (fold change) (thyroid): ↑ x2
- TSHR expression ↓ (fold change) (thyroid): TSHR ↓ x2
- Thrombospondin 2 expression ↑ (fold change) (thyroid): 2 ↑ x2
- Transcription factor 7 (T-cell specific, HMG-box) expression ↓ (fold change) (thyroid): box) ↓ x16.5
- VWF precursor expression ↑ (fold change) (thyroid): precursor ↑ x2
- c-AMP responsive element binding protein 1 expression ↓ (fold change) (thyroid): protein 1 ↓ x2
- Endothelial differentiation-related factor 1 expression, direction of change (thyroid, arrow only, factor not given): related factor 1 ↑
